Assay: Human HepG2 cell viability assay in 384 well format
Assay type: toxicity, cell-based
Design: dose 125 nL, time 70.5 hour; concentration not given beside the values
Conditions: HepG2 cells, read-out: Inhibition

Compound | cytotoxicity at 70.5 h [%]
Cc1ccc(C(=O)N(Cc2cccnc2)C[C@@H]2CCC(=O)N2)s1 | 28
CCC(CNC(=O)c1cccc(S(=O)(=O)NC)c1)N1CCCC1 (centres undefined) | -2.78
Cc1nn(C)c(N(C)C)c1CNC1CCOc2c(F)cccc21 (centres undefined) | 13.3
C/C(=C\c1ccccc1)CN1CCCC(c2nnc3n2CCNCC3)C1 (centres undefined) | -6.58
N#Cc1cccnc1OC1CCN(S(=O)(=O)c2ccc(Br)cc2)CC1 | -12.9
O=C(NC1CCCC1)N1C[C@H]2CN(c3ccncc3)C[C@@]2(C(=O)O)C1 | 14.8
Cc1noc(C)c1CCC(=O)N[C@@H]1CC[C@@H](Oc2cccnc2)[C@@H]1O | -3.66
N#Cc1cccc(CN2C[C@@H](F)[C@@H](OCc3nc4ccccc4[nH]3)C2)c1 | -2.32
CCCN(CCc1ccccc1)C(=O)c1ccccc1NCC(=O)O | -7.74
CCCc1nc(C(=O)NC(COC)c2ccnn2C)cs1 (centres undefined) | -10.8
O=C(O)c1cccc(CN2CCCC(c3ccn[nH]3)C2)c1 (centres undefined) | -4.41
Cc1noc([C@H]2C[C@H]3CN(C(=O)C4CCOCC4)CC[C@@H]3O2)n1 | -12.9
Cc1ccnc(C2CCN(S(=O)(=O)c3cn(C)cn3)CC2)n1 | -9.62
Cn1cc(C(=O)CC2CCCN2C(=O)c2n[nH]c3ccccc23)cn1 (centres undefined) | 8.22
COc1cc(N2CCC3(CC2)C(c2ccncc2)CC(=O)N3C)ncn1 (centres undefined) | -9.06
O=C(c1ccc[nH]1)N1C[C@H]2CN(Cc3cccc(F)c3)C(=O)[C@H]2C1 | -0.293
O=C(Cn1cc(C2CC2)nn1)NC(c1ccc(Cl)cc1)C1CC1 (centres undefined) | -8.06
CCCN1CCC(NCc2ccncc2)CC1 | -5.69
c1ccc(CN2CCc3ncnc(C4CC4)c3CC2)nc1 | -1.29
CC(C)CNC(=O)Nc1ccc(CN2CCOC2=O)cc1 | -13.4
Cc1oc(-c2nc(C#N)c(NC(C)C)o2)cc1S(=O)(=O)N1CCCC1 | -25.3
Cn1cc(Br)cc1C(=O)NC1(C#N)CC1 | 15.5

Compound | cytotoxicity at 70.5 h [%]
CNC(=O)C1CN(C(=O)COc2ccccc2)Cc2cn(C)nc21 (centres undefined) | -3.29
Cc1ncsc1CNC(=O)CCN1CCN(c2ccccn2)CC1 | -8.25
Cc1ccc2nc(C(=O)N3CCNC(=O)C3c3cccc(F)c3)cn2c1 (centres undefined) | 24.1
CC(=O)N1CCCN(C(=O)NCCNc2ccccn2)CC1 | 2.71
Cc1ncsc1-c1nnc(C2CCN(Cc3ccc(Cl)cc3)CC2)o1 | 32.1
COc1ncccc1CN1C[C@@H]2COC[C@]2(COCC2CC2)C1 | -11.6
Cc1nc(CN2CCO[C@H]3[C@@H](OCc4cccnc4)CC[C@@H]32)cs1 | 4.04
CCCOC1CCCN(Cc2nc(-c3cccs3)oc2C)C1 (centres undefined) | -1.07
COCCCNc1c(C#N)c2c(c3nncn13)CN(C)CC2 | -28.4
COC(=O)c1cccn1C1CCN(C(=O)c2cc(C)ccc2O)CC1 | 2.48
O=C(NC1CC1)c1cc2c(s1)CCN2C(=O)C1CC1 | -7.29
Cc1cc(C)n(C2CCCN(C(=O)c3cccc4[nH]ncc34)C2)n1 (centres undefined) | -4.99
COc1ccc2c(c1)CCCC2CC(=O)NCC(=O)O (centres undefined) | -4.55
CO[C@H]1CO[C@@]2(CCCN(C(=O)C3CC=CC3)C2)C1 | -0.276
Cc1nc(-c2cc(C(=O)N3CCCN(C)CC3)c3ccccn23)cn1C | -2.18
CCC(NCc1nccn1C)c1nc(C(F)(F)F)cs1 (centres undefined) | -0.765
CCc1c(C)noc1-c1cnc(NC2CC2)nc1-c1cnc(C)cn1 | -7.43
O=C(NCc1ccccn1)c1cncc(C2CCCN2)n1 (centres undefined) | 22.2
CNC(=O)CN1CCc2c(CNc3nccs3)n[nH]c2C1 | -10.9
Cc1cc2ncc(C(C)NCc3cccnc3)c(C)n2n1 (centres undefined) | -3.89
CCN(C)S(=O)(=O)N1C[C@@H]2CC[C@H](C1)N(Cc1cscn1)C2=O | -8.95
COc1ccccc1C1SCC(=O)Nc2c1c(=O)[nH]n2C1CCCCC1 (centres undefined) | 20.9

— ChEMBL document CHEMBL3507680, “University of Dundee, Gates Library screen for HepG2 cell viability”
